Measured values reported in patent US20260324636A1, “COMPOSITION FOR PROVIDING PLANT WITH STRESS RESISTANCE” (KIRIN HOLDINGS KABUSHIKI KAISHA, priority 2022, published 2026).

Columns and labels:
Arabidopsis thaliana = assay: Oxidation stress resistance against methyl viologen (leaf chlorosis, chlorophyll content), Example 8; type: in vivo, Arabidopsis thaliana (Col-0); conditions: with 5 μM methyl viologen, 2 days
Experimental: A wild-type Arabidopsis thaliana strain (accession: Col-0) was used as an experimental material. Seeds were purchased from Inplanta Innovations Inc.
A Murashige and Skoog Plant Salt Mixture 2.2 g (Nacalai tesque) and sucrose 10 g (FUJIFILM Wako) were dissolved in 1 l of pure water, a pH was adjusted to 5.8, and the resultant was sterilized in an autoclave (121° C., 20 minutes).
Arabidopsis thaliana seeds were sterilized by incubation with the use of a Kitchen Haiter® (Kao Corporation) diluted to 2-fold with pure water for 3 minutes. After the seeds were washed with sterile water 3 times, the seeds soaked in sterile water were incubated at 4° C. in the dark for 1 day in order to germinate the seeds at the same time. […]
Leaf chlorosis is observed in plants upon oxidation stress exposure. Thus, an extent of chlorosis was evaluated by measuring the content of the green pigment chlorophyll in leaves. The chlorophyll content was quantified in accordance with the method of Yamaguchi et al. (Nature Commun., Jun. 9, 2021; 12 [1]: 3480). […] The absorbance of the extract was measured at 647 nm and 664 nm, respectively, to calculate the chlorophyll content. The chlorophyll content was calculated in accordance with the formula: 19.43×A647+8.05×A664. The calculated value was divided by the plant weight per well, so as to eliminate the influence of individual sizes.

hop = assay: High-temperature stress resistance in hop (fresh weight of aboveground part), Example 4; type: in vivo, hop (variety: Saaz); conditions: 0.1 mM in agar medium, 30° C. 2 weeks
Experimental: A hop strain (the variety: Saaz) was used as an experimental material. Hop seedlings were purchased from Hananoyakata (http://hananoyakata.shop-pro.jp).
Tissue-cultured seedlings required for evaluation of high temperature response of a hop were prepared in a laboratory. A stem fragment including a node was removed from a Saaz seedling as an explant and incubated with 70 (v/v) % ethanol (FUJIFILM Wako) for 1 minute and with 1 (v/v) % sodium hypochlorite (FUJIFILM Wako) for 5 minutes for sterilization. The explant was washed with sterile water for 1 minute, washing was repeated 3 times, moisture was removed therefrom with a paper towel, the explant was inoculated in an agar medium containing a ½ Murashige and Skoog Plant Salt Mixture, 2 (w/v) % glucose, and 0.2 (w/v) % gellan gum (FUJIFILM Wako), and culture was initiated in an incubator. The incubator was maintained at a temperature of 20° C. for a daily cycle of 16 hours light and 8 hours darkness. Two weeks after the initiation of culture, axillary buds extending from the nodes were cut and inoculated into an agar medium, and the sufficiently grown seedlings were designated as “tissue-cultured seedlings.” Tissue-cultured seedlings were subcultured by inoculating apical buds into fresh agar media every 1.5 months. […]

H1ZAT10 = H1ZAT10 gene expression by real-time PCR, Example 13; type: in vivo, hop; conditions: 1 mM in medium, 20° C. for 2 hours, leaves; read-out: H1ZAT10 expression level, increase vs control
Description: The materials as used in Example 4 were used.
The medium as used in Example 4 were used.
In order to design primers for the target genes necessary for gene expression analysis by real-time PCR, homologs of Arabidopsis thaliana oxidation stress-responsive genes in hop were searched for. The amino acid sequences of Arabidopsis thaliana ZAT10 (AGI code: AT1G27730) and ZAT12 (AGI code: AT5G59820) were obtained from TAIR (https://www.arabidopsis.org/), and the nucleotide sequences of the gene homologs were obtained using Hopbase (http:/hopbase.cgrb.oregonstate.edu/). […] As the reference gene, the nucleotide sequence of the homolog of Arabidopsis thaliana EF1α (AGI code: AT1G18070) was obtained. The hop homolog genes were designated as H1ZAT10, H1ZAT12, and HIEF1α, respectively.
The leaves in the first and the second nodes from the apical buds of the tissue-cultured seedlings were sampled 1.5 months after the initiation of subculture and inoculated into a liquid medium consisting of a ½ Murashige and Skoog Plant Salt Mixture and 2 (w/v) % glucose. Specifically, a liquid medium was dispensed at 5 ml/well to a 6-well microplate, and 5 hop leaves were mounted thereon. […]
Thereafter, the relative expression levels of the target genes upon N-acetylglutamic acid treatment were calculated by the ΔΔCt method.

CC(=O)N[C@@H](CCC(=O)O)C(=O)O [N-acetylglutamic acid]
chlorophyll content of the MV-treated groups (Arabidopsis thaliana; 0, 0.01, 0.1, and 0.4 mM, fresh weight basis): increased as the N-acetylglutamic acid concentration was increased | leaf chlorosis in MV-treated group (Arabidopsis thaliana; 0.4 mM): substantially no leaf chlorosis was observed | fresh weight of the aboveground part, increase relative to the group not subjected to the treatment (hop): 1.8 times | decrease in the fresh weight of the aboveground part caused by the high-temperature treatment (hop; vs control group): suppressed | fold induction at 1000 µM (H1ZAT10): 1.7
